Experimental data from patent publication US9820963B2, “Composition containing lignan compound as active ingredient for preventing or treating cancer” (KOREA RESEARCH INSTITUTE OF BIOSCIENCE AND BIOTECHNOLOGY, priority 2013, dated 2017).
pIC50: −log10 of the molar value. “Also recorded” adds a separate entry of the source. One block for each molecule: values may come before it.

How the values were obtained:
[1] = test system: ERKs/RSKs signaling pathway; assay: Western blot of EGF-stimulated cells, ERKs/RSKs signaling pathway; format: cell-based, mouse; details: for ERK1/2 phosphorylation at Thr202/Tyr204: JB6 Cl41 cells
Protocol: The cultured JB6 Cl41 cells (1×10^6 cells) were aliquoted into a cell culture dish with a diameter of 100 mm and they were cultured overnight. Then, the cells were left for 24 hours in 0.1% FBS-MEM and pretreated with magnolin at concentrations of 15 μM, 30 μM, and 60 μM for 30 minutes, respectively, and after 30 minutes, co-treated with EGF and magnolin.
The proteins were extracted from the cultured JB6 Cl41 cells and the samples containing the proteins were analyzed by 8% to 10% SDS-PAGE, and transferred onto polyvinylidene difluoride (PVDF) membranes. The membranes were cultured in a blocking buffer containing 5% skim milk. Then, Western blot was performed using specific antibodies for phospho-MEK (MAPK (mitogen-activated protein kinase)/ERK kinase), total-MEK, phospho-ERK, total-ERK, phospho-RSK, total-RSK, phospho-Akt, total-Akt, phospho-p38 kinase, total-p38 kinase, phospho-JNK (c-Jun N-terminal kinase), and total-JNK (all the antibodies obtained from Cell Signaling Technology, Beverly, Mass., USA). In particular, β-actin (Santa Cruz, Calif., USA) was used as a control and the Western blot was visualized with an enhanced chemiluminescence detection system (Amersham Biosciences, Piscataway, N.J., USA) using the Chemidoc XRS imager system (Bio-Rad Laboratories, Hercules, Calif., USA).
To confirm whether the action of magnolin, which interrupts phosphorylation at Thr359/Ser363 of RSKs, was selective in MEKs/ERKs signaling pathways or not, the action was compared by conducting an experiment on the phosphorylation of ERKs and RSKs by treatment with PD98059, an MEK1/2 inhibitor. As a result, it was confirmed that PD98059 interrupts ERK1/2 phosphorylation at Thr202/Tyr204.

ERK2 [2] = target: T1, ERK2 (Homo sapiens, UniProt P28482); assay: In vitro kinase analysis with active ERK2 and His-RSK2-328-740; format: biochemical
T1 sequence (P28482 whole entry, the tested form may be a part): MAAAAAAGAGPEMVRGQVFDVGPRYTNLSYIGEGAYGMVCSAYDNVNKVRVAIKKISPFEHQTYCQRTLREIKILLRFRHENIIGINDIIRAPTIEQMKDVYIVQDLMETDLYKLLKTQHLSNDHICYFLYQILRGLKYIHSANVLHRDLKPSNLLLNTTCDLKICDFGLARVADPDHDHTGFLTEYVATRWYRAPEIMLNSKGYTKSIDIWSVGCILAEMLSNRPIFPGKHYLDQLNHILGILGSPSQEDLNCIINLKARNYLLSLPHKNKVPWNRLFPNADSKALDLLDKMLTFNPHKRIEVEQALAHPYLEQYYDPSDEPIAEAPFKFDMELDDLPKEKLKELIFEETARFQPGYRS
Protocol: (§1) A truncated RSK2 protein containing the amino acid at position 328 to the amino acid at position 740 (His-RSK-328-740) was purified using Ni-NTA agarose beads (Qiagen Korea Ltd., Seoul, Korea) (Left panel on FIG. 13A) and an in vitro-kinase analysis was performed using active ERK and His-RSK2-328-740 proteins. Specifically, in the in vitro-kinase analysis, 20 μL of the purified sample was treated with 20 ng of active ERK1 or ERK2, 100 ng of RSK2, and 100 μM of cold-ATP, and 3.75 μM, 7.5 μM, 15 μM, 30 μM, and 60 μM of magnolin, respectively. Then, the kinase reaction was performed for 30 minutes at 30° C. The reaction was stopped by adding 6×SDS-sample buffer followed by boiling. Upon termination of the reaction, the resultant was visualized by Western blot.
(§2) As the result of the computational docking, it was observed that magnolin forms hydrogen bonds with Lys168 of ERK1 (Left panel on FIG. 13B) and Met108 and Lys54 of ERK2 (Right panel on FIG. 13B), respectively. Further, it was confirmed that magnolin in the active pocket of ERK1 or ERK2 was completely different in molecular structure and binding angle. The docking scores of magnolin at the active pockets of ERK1 and ERK2 were −0.7 and −6.68, respectively. Further, to measure the IC50 value on the activity of ERK1 or ERK2, the in vitro-kinase analysis was performed.

[3] = test system: Mouse skin epidermal JB6 Cl41 cells; assay: MTS assay, inhibitory effect of magnolin on cell proliferation; format: cell-based; details: up to 96 hours, read-out: inhibition of cell proliferation compared with DMSO control
Protocol: Mouse skin epidermal JB6 Cl41 cells were cultured in Dulbeco's Modified Eagle's Medium (DMEM) containing 10% FBS at 37° C. in a 5% CO2 bioreactor. The cells were subcultured at 80% to 90% confluence and the medium was changed every 2 to 3 days.
The cultured JB6 Cl41 cells (1×10^3 cells) were aliquoted into 96-well plates containing 5% FBS-MEM and cultured for 2 hours at 37° C. in a 5% CO2 bioreactor. Then, each well was added with 20 μL of an aqueous solution of the MTS-based Cell Titer 96, and then, further cultured for 1 hour at 37° C. in a 5% CO2 bioreactor. 25 μL of 10% sodium dodeceyl sulfate (SDS) solution was added into each of the wells to stop the reaction. The absorbance at 492 nm was measured to measure the growth of the cells at 0 hour.
While measuring the absorbance at 0 hour, the cells were simultaneously treated with the magnolin samples to final concentrations of 15 μM, 30 μM, and 60 μM, respectively, prepared in Example 5. The cells were cultured for 96 hours while measuring the absorbance at 24 hour intervals. In the experiment, the cell treated with DMSO alone was set as a control.

[4] = test system: A549 cells having Ras^G12V; assay: Anchorage-independent colony growth in soft agar; format: cell-based, human; details: 15, 30, 60 μM, 10 days
Protocol: Further, H226 cells (8×10^3 cells) having Ras-wt and A549 cells (8×10^3 cells) having Ras^G12V were cultured in 1 mL of 0.3% DMEM agar containing 10% FBS and 15 μM, 30 μM, and 60 μM of magnolin, respectively, maintained at 37° C., and cultured in a 5% CO2 bioreactor for 10 days. As the result of counting the number and size of the cell colonies using an ECLIPSE Ti inverted microscope and the NIS-Elements AR (V. 4.0) computer software program, it was observed that an anchorage-independent colony growth of A549 cells was inhibited by magnolin.

[5] = test system: A549 human lung cancer cells harboring Ras^G12V; assay: Cell proliferation of lung cancer cells; format: cell-based; details: 15, 30, 60 μM, 96 hours
Protocol: H226 human lung cancer cells (2×10^3 cells) harboring Ras-wt and A549 human lung cancer cells (2×10^3 cells) harboring Ras^G12V, mutant activating factor, were aliquoted into 96-well plates, respectively, and treated with magnolin at concentrations of 15 μM, 30 μM, and 60 μM. The cells were cultured for 96 hours at 24 hour intervals and the cell proliferation was measured.

[6] = test system: NIH3T3 cells expressing Ras^G12V; assay: Cell proliferation and anchorage-independent colony growth of NIH3T3 cells; format: cell-based
Excerpt: In order to confirm the experimental results more precisely, NIH3T3 cells stably expressing mock or Ras^G12V were used to perform an additional experiment in the same manner as described above.

JB6 Cl41 cells [7] = assay: Cytotoxicity of magnolin; format: cell-based, mouse; details: 100 μM or higher, 48 hours
Protocol: Additionally, to examine the cytotoxicity of magnolin, the cultured cells (2×10^4 cells) were aliquoted into 96-well plates containing 5% FBS-MEM and cultured overnight. Then, the cells were treated with the magnolin samples to final concentrations of 15 μM, 30 μM, 60 μM, and 100 μM respectively, prepared in the Example 5. The cells were cultured for 48 hours while measuring the absorbance at 24 hour intervals. In the experiment, the cell treated with DMSO alone was set as a control.

ERK2 [8] = target: T1, ERK2; assay: Magnolin competition analysis using ATP-agarose beads; format: binding; details: increasing magnolin
Protocol: Then, to confirm whether magnolin was competitive with ATP or not, a magnolin competition analysis was performed using APT-agarose beads. As the result of the experiment, it was confirmed that an increase in magnolin decreased ERK2 that bind to ATP-agarose beads (FIG. 13E).

JB6 Cl41 cells [9] = assay: EGF-induced cell cycle progression; format: cell-based, mouse; details: 60 μM or higher, 1 ng/mL EGF, 12 hours
Protocol: Then, the cells were pretreated with magnolin to final concentrations of 15 μM, 30 μM, and 60 μM, respectively, for 30 minutes. Then, under the presence of magnolin, the cells were stimulated with 1 ng/mL of EGF for 12 hours.

JB6 Cl41 cells [10] = assay: Cell cycle distribution by PI flow cytometry, normal culture conditions; format: cell-based, mouse; details: for distribution in G1/G0 phase: 12 hours (control about 42%)
Protocol: To observe the cell cycle of the cells under normal cell culture conditions, JB6 Cl41 cells were cultured in a complete cell culture medium for 12 hours and treated with magnolin at final concentrations of 30 μM and 60 μM, respectively. After 12 hours, the cells were treated with trypsin, fixed, and treated with 20 μg/mL of PI at 4° C. for 15 minutes. Then, the cell cycle distribution was analyzed using the flow cytometry (BD FACS Calibur™ Flow cytometery, Franklin Lakes, N.J., USA).

JB6 Cl41 cells [11] = assay: Anchorage-independent cell transformation assay, EGF-induced; format: cell-based; details: Mus musculus, JB6 Cl41, 336 h, 10 ng/mL EGF, 14 days
Protocol: JB6 Cl41 cells (8×10^3 cells) present in 1 mL of 0.3% Basal Medium Eagle (BME) agar containing 10% FBS and magnolin in concentrations of 15 μM, 30 μM, and 60 μM, respectively, were exposed to 10 ng/mL of EGF, maintained at 37° C., and cultured in a 5% CO2 bioreactor for 14 days. Then, the number and size of the colonies were counted using an ECLIPSE Ti inverted microscope and the NIS-Elements AR (V. 4.0) computer software program (NIKON Instruments Korea, Seoul, Korea).

[12] = test system: ATF1 and AP-1 transactivation activities; assay: ATF1 and AP-1 phosphorylation, nuclear localization and transactivation (Western blot, luciferase reporter); format: cell-based, mouse
Protocol: 1×10^6 of the cultured JB6 Cl41 cells were cultured in a cell culture dish with a diameter of 100 mm for overnight. The cells were starved and left for 24 hours, and then pretreated with magnolin at concentrations of 15 μM, 30 μM, and 60 μM of for 30 minutes, and then co-treated with […] of EGF and magnolin for 30 minutes. The proteins were extracted from the cells and visualized by Western blot.
On the other hand, the cells were co-transfected with pGAL4-ATF1-expressing plasmids and p5xGal4-luciferase reporter plasmids, and then cultured for 12 hours. The cells were pretreated with magnolin for 30 minutes, and co-treated with EGF and magnolin for 6 hours. Then, the cell culture was stopped and the activity of firefly luciferase was measured using the VIXTOR X3(PerkinElmer).

ERK1 = ERK1 (Homo sapiens, UniProt P27361); assay: In vitro kinase analysis with active ERK1 and His-RSK2-328-740; format: biochemical
Chain of ERK1 (P27361 whole entry, species assumed): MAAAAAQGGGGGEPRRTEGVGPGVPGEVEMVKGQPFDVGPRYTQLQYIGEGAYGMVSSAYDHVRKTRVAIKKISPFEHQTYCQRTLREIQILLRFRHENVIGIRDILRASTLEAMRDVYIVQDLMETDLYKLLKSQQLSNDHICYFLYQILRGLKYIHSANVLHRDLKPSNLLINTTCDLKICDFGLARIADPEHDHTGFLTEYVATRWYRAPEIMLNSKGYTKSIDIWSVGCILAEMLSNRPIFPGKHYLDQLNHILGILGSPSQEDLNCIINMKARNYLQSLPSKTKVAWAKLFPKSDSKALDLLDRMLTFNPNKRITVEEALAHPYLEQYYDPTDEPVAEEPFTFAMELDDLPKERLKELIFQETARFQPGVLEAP
Protocol: as §1, §2

[13] = co-treated with EGF and magnolin

Structure (SMILES): COc1cccc(-c2cc(=O)c3ccccc3o2)c1N [PD98059, reference compound]
phosphorylation at Thr359/Ser363 of RSKs ([1]; EGF-stimulated JB6 Cl41 cells): inhibited | ERK1/2 phosphorylation at Thr202/Tyr204 [1]: interrupts

pIC50 (ERK2 [2]): 7.78 | ERK2 binding to ATP-agarose beads (ERK2 [8]): decreased | inhibition of ERK1-mediated RSK2 phosphorylation at Thr359/Ser363 and Thr577 (ERK1; in vitro kinase reaction, 100 μM ATP, magnolin 3.75 to 60 μM): about 90% | pIC50 (ERK1; in vitro-kinase analysis): ~7.06
Structure (SMILES): COc1ccc([C@H]2OC[C@H]3[C@@H]2CO[C@@H]3c2cc(OC)c(OC)c(OC)c2)cc1OC [magnolin]
inhibition at 30 µM ([3]; 30 μM): ~40% | inhibition at 60 µM ([3]; 60 μM): ~70% | anchorage-independent colony growth of A549 cells [4]: inhibited | inhibition of cell proliferation in A549 cells compared with H226 cells [5]: more significantly | anchorage-independent growth [6]: inhibited | inhibition of cell proliferation compared with NIH3T3 cells expressing mock [6]: more sensitive | cytotoxicity (JB6 Cl41 cells [7]): no cytotoxicity was observed | phosphorylation at Thr359/Ser363 of RSKs ([1]; EGF-stimulated JB6 Cl41 cells): interrupting phosphorylation; also recorded: inhibited | phosphorylations of MEK, Akt, p38 kinase, and JNKs ([1]; EGF-stimulated JB6 Cl41 cells): not to be involved | ERK1/2 phosphorylation at Thr202/Tyr204 [1]: does not interrupt the phosphorylation | effect of EGF on cell cycle (JB6 Cl41 cells [9]): almost completely inhibited | distribution in G2/M cell cycle phase compared to control (JB6 Cl41 cells [10]; 30 μM and 60 μM, 12 hours): only a very small increase | distribution in G1/G0 phase (JB6 Cl41 cells [10]; 30 μM): about 55% | distribution in G1/G0 phase (JB6 Cl41 cells [10]; 60 μM): about 60% | inhibition at 30 µM (JB6 Cl41 cells [11]; 30 μM): ~40% | inhibition at 60 µM (JB6 Cl41 cells [11]; 60 μM): ~75% | EGF-induced ATF1 phosphorylation at Ser63 ([12]; JB6 Cl41 cells, Western blot): inhibited | AP-1 transactivation activity [12, 13]: inhibited | EGF-induced c-Jun phosphorylation at Ser63 and Ser73 [12, 13]: inhibited | nuclear phospho-c-Jun increased by EGF stimulation [12, 13]: decreased | nuclear phospho-ATF1 protein level induced by EGF ([12]; co-treated with EGF and magnolin, Western blot and immunocytofluorescence): decreased | ATF1 transactivation activity increased by EGF stimulation ([12]; co-treated with EGF and magnolin, luciferase reporter): inhibited
